Paper PMC12419160 (The Journal of Cell Biology, 2025)

Target: T1, PILS-Nir1 (6xHis-tagged LNS2 domain of Nir1) (Homo sapiens, UniProt Q9BZ71)
T1 construct: gene PITPNM3; LNS2 (PILS) domain, residues 609-912 in Methods but 604-912 in Results; TEV-cleavable N-terminal 6xHis tag (pTHT), codon-optimised, expressed in E. coli BL21(DE3) RIPL
T1 sequence (Q9BZ71 609-912): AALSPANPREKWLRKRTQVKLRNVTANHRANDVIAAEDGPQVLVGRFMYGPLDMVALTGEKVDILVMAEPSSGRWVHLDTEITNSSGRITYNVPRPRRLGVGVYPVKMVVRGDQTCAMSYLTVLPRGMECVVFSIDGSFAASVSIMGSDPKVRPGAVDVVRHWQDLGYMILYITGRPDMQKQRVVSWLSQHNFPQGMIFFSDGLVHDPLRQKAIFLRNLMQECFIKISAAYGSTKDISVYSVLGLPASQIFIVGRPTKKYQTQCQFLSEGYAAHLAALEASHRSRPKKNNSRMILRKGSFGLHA
Experiment: liposome cosedimentation, SDS-PAGE densitometry
Type: binding
Details: 20 mol% PA / 80 mol% PC liposomes, 20 mM Tris pH 7.5, 150 mM NaCl; one-site fit with background; 95% C.I. 110.1–789.9 µM

Kd: 422 µM
Substance: phosphatidic acid [PA]
